Results reported in US11230541B2, “Heterocyclic compound” (Takeda Pharmaceutical Company Limited, priority 2017, dated 2022).

Molecular target: T1, NMDA receptor composed of four subunits including 2 sets of heterodimers of NR1 and NR2B (Homo sapiens, UniProt Q13224)
T1 construct: host or cells: HEK293 (tetracycline-induced expression)
Assay: NR2B Ca2+ influx assay (FLIPR, Fluo-4) in HEK293 cells expressing human GRIN1 and GRIN2B
Assay type: cell-based
Settings: HEK293, 10 μM final compound concentration, glutamic acid/glycine-induced Ca2+ influx, read-out: inhibitory rate (10 μM compound concentration)
Outline: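 Inhibition rate was calculated from 5-min cumulative Fluo-4 signal (FLIPR, 3-s reads), using agonist-free buffer wells as 100% inhibition. Compound, 10 μM final, was applied 15 min before adding buffer with 30 μM glutamic acid and glycine to HEK293 cells with tetracycline-induced human NR1/NR2B, in HEPES pH 7.2 with 1.8 mM CaCl2.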

T1 sequence (Q13224 27-1484, other chains not shown): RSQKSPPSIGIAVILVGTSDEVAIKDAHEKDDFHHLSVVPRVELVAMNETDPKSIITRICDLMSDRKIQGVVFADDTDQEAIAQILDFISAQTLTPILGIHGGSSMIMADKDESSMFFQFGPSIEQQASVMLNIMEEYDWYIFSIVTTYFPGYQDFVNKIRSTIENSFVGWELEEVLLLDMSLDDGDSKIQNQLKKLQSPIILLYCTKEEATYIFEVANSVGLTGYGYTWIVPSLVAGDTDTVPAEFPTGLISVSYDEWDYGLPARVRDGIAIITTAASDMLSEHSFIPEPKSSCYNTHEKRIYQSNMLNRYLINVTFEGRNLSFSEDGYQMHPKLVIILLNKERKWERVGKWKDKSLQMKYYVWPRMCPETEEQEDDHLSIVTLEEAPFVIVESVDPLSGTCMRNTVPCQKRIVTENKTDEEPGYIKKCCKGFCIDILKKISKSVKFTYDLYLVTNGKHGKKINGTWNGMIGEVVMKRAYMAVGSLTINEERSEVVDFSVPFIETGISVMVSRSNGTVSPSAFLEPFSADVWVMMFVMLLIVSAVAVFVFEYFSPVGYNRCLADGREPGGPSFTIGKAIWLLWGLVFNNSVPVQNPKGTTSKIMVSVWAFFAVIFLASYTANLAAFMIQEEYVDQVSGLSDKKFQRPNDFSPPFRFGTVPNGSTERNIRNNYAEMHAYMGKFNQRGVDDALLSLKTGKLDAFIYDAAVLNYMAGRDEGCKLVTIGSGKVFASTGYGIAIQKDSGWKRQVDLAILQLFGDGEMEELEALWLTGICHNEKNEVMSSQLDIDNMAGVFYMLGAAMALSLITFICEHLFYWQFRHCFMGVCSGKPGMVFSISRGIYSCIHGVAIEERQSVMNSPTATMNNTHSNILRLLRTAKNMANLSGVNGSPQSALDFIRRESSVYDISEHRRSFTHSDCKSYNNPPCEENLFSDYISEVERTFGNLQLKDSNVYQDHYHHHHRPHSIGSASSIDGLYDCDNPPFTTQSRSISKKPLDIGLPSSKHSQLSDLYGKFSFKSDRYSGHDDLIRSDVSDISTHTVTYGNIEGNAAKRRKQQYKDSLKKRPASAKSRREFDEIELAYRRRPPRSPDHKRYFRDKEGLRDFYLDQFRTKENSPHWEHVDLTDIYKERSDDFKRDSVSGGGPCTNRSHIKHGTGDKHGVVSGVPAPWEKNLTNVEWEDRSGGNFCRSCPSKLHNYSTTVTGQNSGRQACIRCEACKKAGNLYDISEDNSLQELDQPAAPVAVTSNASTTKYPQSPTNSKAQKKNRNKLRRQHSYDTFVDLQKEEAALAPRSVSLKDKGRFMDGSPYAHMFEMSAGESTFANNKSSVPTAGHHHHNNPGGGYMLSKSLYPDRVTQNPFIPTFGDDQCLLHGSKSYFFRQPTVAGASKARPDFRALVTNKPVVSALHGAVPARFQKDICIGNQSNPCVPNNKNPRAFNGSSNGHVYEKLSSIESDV

COc1ncc(C(=O)NCc2c(C3CC3)ccc3[nH]ncc23)cc1Cl [Example 103, 5-chloro-N-((5-cyclopropyl-1H-indazol-yl)methyl)-6-methoxynicotinamide]
inhibition at 10 µM: 93%

CCOc1ncc(C(=O)NCc2c(C3CC3)ccc3[nH]ncc23)cc1Cl [Example 104, 5-chloro-N-((5-cyclopropyl-1H-indazol-4-yl)methyl)-6-ethoxynicotinamide]
inhibition at 10 µM: 90%

O=C(NCc1c(C2CC2)ccc2[nH]ncc12)c1cnc(OC(F)F)c(F)c1 [Example 105, N-((5-cyclopropyl-1H-indazol-4-yl)methyl)-6-(difluoromethoxy)-5-fluoronicotinamide]
inhibition at 10 µM: 93%

O=C(NCc1c(C2CC2)ccc2[nH]ncc12)c1ccc(OC(F)(F)F)nc1 [Example 106, N-((5-cyclopropyl-1H-indazol-4-yl)-methyl)-6-(trifluoro-methoxy)nicotinamide]
inhibition at 10 µM: 93%

O=C(NCc1c(C2CC2)ccc2[nH]ncc12)c1ccc(OC(F)F)c(Cl)c1 [Example 107, 3-chloro-N-((5-cyclopropyl-1H-indazol-yl)methyl)-4-(difluoromethoxy)-benzamide]
inhibition at 10 µM: 93%

O=C(NCc1c(C2CC2)ccc2[nH]ncc12)c1cc(F)c(C(F)F)c(F)c1 [Example 108, N-((5-cyclopropyl-1H-indazol-4-yl)methyl)-(difluoromethyl)-3,5-dlfluorobenzamide]
inhibition at 10 µM: 94%

Cc1ccc2ncn(C)c2c1CNC(=O)c1ccc(OC(F)F)c(F)c1 [Example 109, 4-(difluoromethoxy)-N-((1,6-dimethyl-1H-benzimidazol-7-yl)methyl)-3-fluorobenzamide]
inhibition at 10 µM: 92%

COc1ccc2ncn(C)c2c1CNC(=O)c1csc(C(F)F)c1 [Example 110, 5-(difluoromethyl)-N-((6-methoxy-1-methyl-1H-benzimidazol-7-yl)methyl)thiophene-3-carboxamide]
inhibition at 10 µM: 92%

COc1ccc2ncn(C)c2c1CNC(=O)c1cc(F)c(OC)c(Cl)c1 [Example 111, 3-chloro-5-fluoro-4-methoxy-N-((6-methoxy-1-methyl-1H-benzimidazol-7-yl)methyl)benzamide]
inhibition at 10 µM: 93%

COc1ccc2ncn(C)c2c1CNC(=O)c1ccc(C(F)F)c(Cl)c1 [Example 112, 3-chloro-4-(difluoromethyl)-N-((6-methoxy-1-methyl-1H-benzimidazol-7-yl)methyl)benzamide]
inhibition at 10 µM: 92%

COc1ccc2ncn(C)c2c1CNC(=O)c1cnc(C(F)(F)F)c(Cl)c1 [Example 113, 5-chloro-N-((6-methoxy-1-methyl-1H-benzimidazol-7-yl)methyl)-6-(trifluoromethyl)-nicotinamide]
inhibition at 10 µM: 90%

COc1ccc2ncn(C)c2c1CNC(=O)c1ccc(C)cc1 [Example 114, N-((6-methoxy-1-methyl-1H-benzimidazol-7-yl)methyl)-4-methylbenzamide]
inhibition at 10 µM: 87%

COc1ccc2ncn(C)c2c1CNC(=O)c1csc(C2CC2)c1 [Example 115, 5-cyclopropyl-N-((6-methoxy-1-methyl-1H-benzimidazol-7-yl)methyl)thiophene-3-carboxamide]
inhibition at 10 µM: 93%

COc1ccc2ncn(C)c2c1CNC(=O)c1ccc(Cl)cc1 [Example 116, 4-chloro-N-((6-methoxy-1-methyl-1H-benzimidazol-7-yl)methyl)benzamide]
inhibition at 10 µM: 90%

COc1ccc2ncn(C)c2c1CNC(=O)c1ccc(C(F)(F)F)cc1 [Example 117, N-((6-methoxy-1-methyl-1H-benzimidazol-7-yl)methyl)-4-(trifluoromethyl)benzamide]
inhibition at 10 µM: 90%

O=C(NCc1c(C2CC2)ccc2[nH]ncc12)c1ccc(C(F)F)c(F)c1 [Example 118, N-((5-cyclopropyl-1H-indazol-4-yl)methyl)-4-(difluoromethyl)-3-fluorobenzamide]
inhibition at 10 µM: 94%

CCOc1ncc(C(=O)NCc2c(C3CC3)ccc3[nH]ncc23)cc1F [Example 119, N-((5-cyclopropyl-1H-indazol-4-yl)methyl)-6-ethoxy-5-fluoronicotinamide]
inhibition at 10 µM: 94%

O=C(NCc1c(C2CC2)ccc2[nH]ncc12)c1ccc(OC(F)F)c(F)c1 [Example 120, N-((5-cyclopropyl-1H-indazol-4-yl)methyl)-4-(difluoromethoxy)-3-fluorobenzamide]
inhibition at 10 µM: 92%

O=C(NCc1c(C2CC2)ccc2[nH]ncc12)c1cnc(OC(F)F)c(Cl)c1 [Example 121, 5-chloro-N-((5-cyclopropyl-1H-indazol-4-yl)methyl)-6-(difluoromethoxy)-nicotinamide]
inhibition at 10 µM: 91%

CCc1ccc(C(=O)NCc2c(OC)ccc3ncn(C)c23)s1 [Example 122, 5-ethyl-N-((6-methoxy-1-methyl-1H-benzimidazol-7-yl)methyl)thiophene-2-carboxamide]
inhibition at 10 µM: 90%

COc1ccc2ncn(C)c2c1CNC(=O)c1ccc(C(F)F)cc1 [Example 123, 4-(difluoromethyl)-N-((6-methoxy-1-methyl-1H-benzimidazol-7-yl)methyl)benzamide]
inhibition at 10 µM: 88%

COc1ccc2ncn(C)c2c1CNC(=O)c1ccc(C(F)F)c(F)c1 [Example 124, 4-(difluoromethyl)-3-fluoro-N-((6-methoxy-1-methyl-1H-benzimidazol-7-yl)methyl)benzamide]
inhibition at 10 µM: 90%

CCOc1ccc2ncn(C)c2c1CNC(=O)c1csc(C(F)F)c1 [Example 125, 5-(difluoromethyl)-N-((6-ethoxy-1-methyl-1H-benzimidazol-7-yl)methyl)thiophene-3-carboxamide]
inhibition at 10 µM: 92%

CCOc1ccc2ncn(C)c2c1CNC(=O)c1ccc(C(F)F)s1 [Example 126, 5-(difluoromethyl)-N-((6-ethoxy-1-methyl-1H-benzimidazol-7-yl)methyl)thiophene-2-carboxamide]
inhibition at 10 µM: 88%

CCOc1ccc2ncn(C)c2c1CNC(=O)c1cc(F)c(OC)c(F)c1 [Example 127, N-((6-ethoxy-1-methyl-1H-benzimidazol-7-yl)methyl)-3,5-difluoro-4-methoxybenzamide]
inhibition at 10 µM: 92%

CCOc1ccc2ncn(C)c2c1CNC(=O)c1ccc(C(F)(F)F)cc1 [Example 128, N-((6-ethoxy-1-methyl-1H-benzimidazol-7-yl)methyl)-4-(trifluoromethyl)-benzamide]
inhibition at 10 µM: 91%

COc1ccc(C(=O)NCc2c(C)ccc3ncn(C)c23)cc1F [Example 129, N-((1,6-dimethyl-1H-benzimidazol-7-yl)methyl)-3-fluoro-4-methoxybenzamide]
inhibition at 10 µM: 88%

CCc1ccc2ncn(C)c2c1CNC(=O)c1ccc(OC)c(F)c1 [Example 130, N-((6-ethyl-1-methyl-1H-benzimidazol-7-yl)methyl)-3-fluoro-4-methoxybenzamide]
inhibition at 10 µM: 91%

CCc1ccc2ncn(C)c2c1CNC(=O)c1cc(F)c(OC(F)F)c(F)c1 [Example 131, 4-(difluoromethoxy)-N-((6-ethyl-1-methyl-1H-benzimidazol-7-yl)methyl)-3,5-difluorobenzamide]
inhibition at 10 µM: 93%

CCc1ccc2ncn(C)c2c1CNC(=O)c1csc(C(F)F)c1 [Example 132, 5-(difluoromethyl)-N-((6-ethyl-1-methyl-1H-benzimidazol-7-yl)methyl)thiophene-3-carboxamide]
inhibition at 10 µM: 90%

CCc1ccc2ncn(C)c2c1CNC(=O)c1ccc(C(F)F)cc1 [Example 133, 4-(difluoromethyl)-N-((6-ethyl-1-methyl-1H-benzimidazol-7-yl)methyl)benzamide]
inhibition at 10 µM: 91%

Cc1ccc2ncn(C)c2c1CNC(=O)c1cnc(OC(F)F)c(F)c1 [Example 134, 6-(Difluoromethoxy)-N-((1,6-dimethyl-1H-benzimidazol-7-yl)methyl)-5-fluoronicotinamide]
inhibition at 10 µM: 90%

Cc1ccc2ncn(C)c2c1CNC(=O)c1ccc(OC(F)F)cc1 [Example 135, 4-(difluoromethoxy)-N-((1,6-dimethyl-1H-benzimidazol-7-yl)methyl)benzamide]
inhibition at 10 µM: 90%

Cc1ccc2ncn(C)c2c1CNC(=O)c1ccc(C(F)F)c(F)c1 [Example 136, 4-(difluoromethyl)-N-((1,6-dimethyl-1H-benzimidazol-7-yl)methyl)-3-fluorobenzamide]
inhibition at 10 µM: 83%

Cc1ccc2ncn(C)c2c1CNC(=O)c1ccc(C(F)F)s1 [Example 137, 5-(difluoromethyl) -N-((1,6-dimethyl-1H-benzimidazol-7-yl)methyl)thiophene-2-carboxamide]
inhibition at 10 µM: 72%

Cc1ccc2ncn(C)c2c1CNC(=O)c1ccc(OC(F)(F)F)nc1 [Example 138, N-((1,6-dimethyl-1H-benzimidazol-7-yl)methyl)-6-(trifluoromethoxy)-nicotinamide]
inhibition at 10 µM: 88%

COc1ccc2ncn(C)c2c1CNC(=O)c1csc(C(F)(F)F)c1 [Example 139, N-((6-methoxy-1-methyl-1H-benzimidazol-7-yl)methyl)-5-(trifluoromethyl)thiophene-3-carboxamide]
inhibition at 10 µM: 91%

CCOc1ccc2ncn(C)c2c1CNC(=O)c1ccc(C(F)F)cc1 [Example 140, 4-(difluoromethyl)-N-((6-ethoxy-1-methyl-1H-benzimidazol-7-yl)methyl)benzamide]
inhibition at 10 µM: 90%

CCOc1ccc2ncn(C)c2c1CNC(=O)c1ccc(C(F)F)c(F)c1 [Example 141, 4-(difluoromethyl)-N-((6-ethoxy-1-methyl-1H-benzimidazol-7-yl)methyl)-3-fluorobenzamide]
inhibition at 10 µM: 90%

Cc1ccc2ncn(C)c2c1CNC(=O)c1csc(C(F)F)c1 [Example 142, 5-(difluoromethyl)-N-((1,6-dimethyl-1H-benzimidazol-7-yl)methyl)thiophene-3-carboxamide]
inhibition at 10 µM: 85%
